Reference: patent US6166085A, “Method of producing analgesia” (priority 1996, dated 2000)
Entries after “also recorded” stand apart in the source; their conditions may differ.

Experiments:
[1] = Observation of motor dysfunction and overt behavior / side effects; assay type: in vivo, Sprague-Dawley rats; conditions: IT; for motor dysfunction, IT (in words): Example 3, lidocaine and MEGX 500 μg, 3-OH L 58 μg (highest dose soluble in vehicle)
Excerpt: Animals were also observed for the appearance of general motor dysfunction,as evidenced by inability to ambulate symmetrically and for any other overt signs of unusual activity.

[2] = tested on: allodynia; conditions: cited from earlier work; for activity as metabolite with regard to allodynia suppression, earlier application: application Ser. No. 08/422,377
[3] = tested on: sciatic nerve compound action potential; test: Rat sciatic nerve compound action potential in vivo, direct application; parameters: species or system Harlan Sprague Dawley rats; conditions: for potency relative to lidocaine: compound action potential blockade; for blockade of sciatic nerve compound action potential (in words): direct application, lidocaine 2.5 mg, metabolites 5 mg, 10 min
Experimental: Male Harlan Sprague Dawley rats (300-350 g) were anesthetized with pentobarbital/diazepam. The sciatic nerves were sequentially and bilaterally exposed by sharp/blunt dissection from the popliteal region proximally. Electrodes were placed at the sciatic notch (stimulating), and the interossei (recording); a grounding electrode was applied remote from the field. Baseline compound action potential (CAP) (A alpha/beta) wave heights (mV) in response to stimulation 1× per minute were recorded for ten minutes to obtain a stable reference. One drug/vehicle solution was applied per nerve, at mid-nerve (mid-thigh) level, in a volume of 250 μl, and compound action potential wave height then was recorded 1× per minute for ten minutes after application.

[4] = tested on: allodynia; test: Tactile allodynia (paw withdrawal threshold, % MPE) in L5/L6 spinal nerve ligated rats, Example 3; assay type: in vivo, Harlan Sprague-Dawley rats; conditions: for effect on allodynia, IV (in words) / Emax at 20 mg/kg: 20 mg/kg; for Emax at 20 mg/kg: Rattus norvegicus, 1 h, IV, 3-OH L in DMSO (p=0.006 vs DMSO, N=4), MEGX over 60 minutes (P=NS vs saline), read-out: maximum effect on PWT (% MPE), IV
Experimental: Male Harlan Sprague-Dawley rats were used (100-200 g). Rats were housed 2-3 to a cage with corn cob bedding and Purina rat chow and water ad libitum, in a standard facility with a 12 h/12 h day/night cycle. After surgical procedures involving chronic indwelling catheter insertion, animals were housed singly to prevent catheter damage.
Rats were allowed to recover 5-7 days before further testing or surgeries.
The catheters were 9 cm in intrathecal length and terminated near the lumbar enlargement. The rostral 3 cm of catheter was tunneled under the skin to externalize between the ears. Rats with neurologic deficits were discarded.
For intravascular access, external jugular catheters were fashioned from PE-50 tubing and inserted into an external jugular vein under halothane/oxygen anesthesia. Arterial catheters were also fashioned from PE-50 with a small bouton 1 cm from the intravascular end for suture securing; they were inserted into a carotid artery, taking care to spare the surrounding nerves. All catheters were flushed with heparinized saline (10 U/ml) and tunneled subcutaneously to emerge at the posterior base of the neck, and capped when not in use.
Monoethylglycinexylidide (MEGX) and 3-hydroxy monoethyl-glycinexylidide (3-OH MEGX) were dissolved in physiologic saline; 3-hydroxylidocaine (3-OH L) was dissolved in DMSO for intravenous administration.
(§1) Intravenous drugs were delivered to awake, unrestrained rats by slow infusion using a syringe pump (Harvard apparatus 22). Intrathecal drugs were delivered to awake, briefly restrained rats in a volume of 10 μl, followed by 10 μl of vehicle flush, using a calibrated tubing extension with a 30-gauge adapter fitting the implanted intrathecal catheter, attached to a geared Hamilton 100 μl glass syringe. IT drug delivery was monitored by observing the advancement of a small air bubble down the tubing.
Rats were placed in a plastic cage with an open wire mesh bottom and allowed to accommodate for approximately fifteen minutes. […] In brief, von Frey hairs were sequentially applied using an up-and-down paradigm to the left mid-plantar hindpaw with sufficient force to cause slight filament buckling. Positive responses were noted if the paw was sharply withdrawn. […] Otherwise, PWT were calculated by noting the stimulus level at which the first change in behavior occurred, collecting four additional responses to the continued up-and-down oscillation of stimulus presentation around the response threshold, and interpolating the 50% response threshold. For some comparisons, raw thresholds were converted to percent of maximum possible effect (% MPE), designating pre-treatment PWT (baselines) as 0% effect, and assigning a cutoff value of 100% effect to thresholds ≥15 g: therefore, % MPE values near 100 indicate normal mechanical thresholds (i.e., at or near 15 g), whereas values near 0 indicate allodynia. The following equation was used to compute % MPE:
% MPE=new threshold(g)-baseline threshold(g)×100/ 15 grams--baseline
Plasma drug levels and PWT were correlated using linear regression. Serially measured PWT and % MPE were compared using repeated measures ANOVA with post-hoc testing.

[5] = tested on: mechanical allodynia; test: Mechanical allodynia in rat model of peripheral neuropathy (L5/L6 spinal nerve ligation), intrathecal, Example 2; assay type: in vivo, Sprague-Dawley rats; conditions: 0.6 μmol intrathecal, pH 6.58
Experimental: Experiments carried out in support of the present invention were performed in a rat model of peripheral neuropathy detailed in Example 2. Briefly, in the model used, rats are subjected to a surgical procedure, described by Kim and Chung (1992), designed to reproducibly injure peripheral nerves (spinal nerves L5 and L6). These rats develop a hyperesthetic state, which can be measured using one or more paradigms known in the art. Here, allodynia was measured by stimulation of neuropathic rat hindlimb using wire hairs having graded degrees of stiffness.
[…]. Test solutions at pH 6.58 were administered intrathecally as described above. Mechanical allodynia was measured by pressing nylon filaments of varying diameters against the paw. Data are expressed in terms of 50% response threshold, which is the median buckling weight required to evoke paw withdrawal; the lower the stimulus level, the more severe the allodynia.
Male Sprague-Dawley rats (200-350 gm) were prepared with chronic lumbar intrathecal catheters inserted under halothane anesthesia (Yaksh and Rudy). Animals were placed in a prone position and the left paraspinal muscles were separated from the spinous processes at the L4 -S2 levels, as described by Kim et al. The left L5 and L6 nerve roots were exposed and tightly ligated with 6-0 surgical silk suture. The rats were allowed to recover from anesthesia. Allodynia was typically observed to occur beginning 1-2 days post surgery and continuing for as long as 45 days. For testing, animals were placed in plastic cubicles with open wire mesh bottoms. Compound dissolved in preservative-free saline solution was administered in a volume of 10 μl through the intrathecal catheter, followed by 10 μl saline to flush the catheter line. Animals were tested for allodynia at various time points after drug treatment, as described below.
To assess the threshold of a non-noxious stimulus required to produce a left hind paw withdrawal (allodynia), Von Frey hairs (ranging from 0.4-15 grams), were systematically applied to the surgically treated hind paw. Failure to evoke a response was cause to test the next stiffer hair. Evocation of a brisk withdrawal response was cause to test the next lower stimulus intensity. This paradigm was repeated according to a statistical method (Dixon, 1976) to define the 50% response threshold.
Data in FIG. 6 are expressed in terms of 50% response threshold, which is the median buckling weight required to evoke paw withdrawal; the lower the stimulus level, the more severe the allodynia. Allodynia thresholds, measured 30 minutes after injection, were plotted against dosage. Each point represents a value for a single animal.

[6] = Plasma bupivacaine level and toxicity during IV infusion; assay type: in vivo, Harlan Sprague-Dawley rats
Experimental: as §1
For bupivacaine assays, samples were obtained by withdrawing and discarding approximately 0.3 cc of blood from arterial cannulae, and then withdrawing samples of approximately 0.5 cc volume. These samples were centrifuged and the plasma supernatant was frozen at -20° C. until analysis.
Bupivacaine was extracted from the thawed samples by solid-phase extraction chromatography )Chen Y et al., Therapeut Drug Monitor 14:317-321 (1992)). Sep-Pak C-18 (300 mg) cartridges were pre-conditioned with 4 ml of methanol and then 4 ml water. […]
Bupivacaine was quantitated by capillary GC with nitrogen-phosphorus detection )Bjork M et al., Journal of Chromatography 533:229-234 (1990)). […] Split injections (1.5:1) were performed with a Hewlett Packard 7673A automatic sampler, and the chromatograms were recorded and analyzed with H-P Chemstation (MSDOS) software. […]

| Compound | motor dysfunction, IT (in words) [1] | activity as metabolite with regard to allodynia suppression, earlier application [2] | potency relative to lidocaine [3] | blockade of sciatic nerve compound action potential (in words) [3] | effect on allodynia, IV (in words) ([4]; IV infusion) | Emax at 20 mg/kg [4] [%] | also measured |
| --- | --- | --- | --- | --- | --- | --- | --- |
| CCNCC(=O)Nc1c(C)cccc1C [MEGX, Monoethylglycinexylidide] | transient motor dysfunction | not MEGX was an active metabolite with regard to allodynia suppression | approximately 1/3 | showed some activity | no effect | 28 | duration of motor dysfunction (hindquarter flaccidity / weakness) ([1]; 500 μg): 5 to 10 min; motor block / motor effects (summary) ([1]; 3-hydroxy MEGX at effective anti-allodynia dose, MEGX in excess): motor blockade; suppression of allodynia after IT administration (summary) ([4]; IT): not MEGX, suppressed allodynia after IT administration; effect on allodynia / PWT, IT 500 μg (in words) ([4]; IT, 500 μg, after recovery of motor function): no effect on PWT |
| CCN(CC)CC(=O)Nc1c(C)ccc(O)c1C [3-OH L, 3-hydroxylidocaine] | no motor dysfunction was seen | active metabolite with regard to allodynia suppression | 1/4 | showed some activity | both potent and effective at suppressing allodynia | 76 | local anesthetic (sodium channel blocking) activity ([3]; FIG. 12 legend): weaker local anesthetic than lidocaine; MPE, IT 20 μg ([4]; IT, 20 (unit printed "l g")): 80.2±20%; MPE, IT 58 μg ([4]; IT, 58 (unit printed "l g")): 63±16% |
| Cc1cccc(C)c1OCC(C)N (stereo not drawn) [mexiletine] | – | – | – | – | – | – | effect on mechanical allodynia (50% response threshold), 0.6 μmol [5]: did not block mechanical allodynia |
| CCCCN1CCCCC1C(=O)Nc1c(C)cccc1C (stereo not drawn) [bupivacaine] | – | – | – | – | – | – | effect of IV bupivacaine on allodynia, earlier literature ([2]; Biella G et al. 1992, centrally facilitated nociceptive processing): lack of effect of bupivacaine on centrally facilitated nociceptive processing; toxicity (in words) [6]: evident toxicity as manifested by ataxia and lethargy; also recorded: Higher doses resulted in seizure; mean plasma level at seizure ([6]; N=4, unit not given): 7.4±0.7; effect of intravenous bupivacaine on allodynia ([4]; IV infusion, 15 samples from 4 rats, P=0.11, linear regression): no effect on allodynia; also recorded: inactive against allodynia |
